Results on two molecules are retold here after patent US11203015B2, “Microfluidic device” (TECHNISCHE UNIVERSITAT WIEN, priority 2016, dated 2021).

The test system of the experiment is human umbilical vain endothelial cells (HUVECs). Kind of experiment: microfluidic wound healing assay (membrane deflection, cell depletion). Type of experiment: cell-based. How it is done: Lentivirally transduced GFP HUVEC (human umbilical vain endothelial cells) were obtained from Olaf pharmaceuticals (USA) and cultivated in gelatin coated 25 cm^2 cell culture flasks and maintained in EGM-2 (Lonza, CC3156) supplemented with EGM-2 SingleQuots (Lonza, CC4176). The coating was performed using 1% gelatin solution (9000-70-8, Sigma Aldrich) in DPBS and was incubated for 30 min at 37° C. For on chip experiments the medium was supplemented with 1% hepes buffer (J848, AMRESCO). For the coating experiment 500 mM NaOH was inserted to the microfluidic channels, incubated for 15 min at RT, following rinsing with PBS and a protein mixture comprising 10 μg/m fibronectin (Sigma Aldrich, F4759) and […] fibrinogen conjugated with Alexa Fluor 488 (Thermo Fisher, F13191) was incubated for 1 h at 37° C.
The microfluidic device of example 1 was placed on a heating plate equipped with a temperature controller. The temperature of the plate was adjusted to reach 37° C. on top of the microdevice. For the on-chip wound healing assays the microchip was first sterilized using 70% ethanol, rinsed using a 1 M NaOH solution for 15 min and washed with PBS prior coating using a 1% gelatin solution for 1 h. Cell suspension of desired concentration was prepared and inserted into microchannels using plastic syringe (1 ml). Cells were allowed to adhere for 1 h in the absence of fluid flow followed by a constant medium perfusion of 4 μl/min using syringe pump. As soon as the cells were grown confluent (typically 1 to 2 days) cells were mechanically damaged (“squeezed”) by the PDMS membrane, which bended under force towards the cell layer. Bending was induced by manual increase of pressure load to 150 kPa (differential pressure) followed by immediate release to 0 kPa using a pressure controller. To further remove residual cell debris from the substrate multiple membrane deflections (minimum of three times) were performed. During the mechanical damaging the medium perfusion was always kept on.
The fluorescence pictures were transformed to grey scale, the contrast increased and the leading edge of the wound selected using the Magic wand tool. This image was then processed using Image) by determining the cell-free area with the tool Analyze Particles.
Next the ability to create defined and reproducible cell depletion zones within a confluent cell monolayer was evaluated using the membrane deflection method. In a series of experiments endothelial cells were seeded and cultivated in a microfluidic channel for a minimum period of 6 hours prior cell removal. During the entire wound healing assay including the cell depletion procedure the applied flow rate of 3 μl/min was kept constant to ensure complete removal of cell debris following membrane compression. In addition to maintaining an intact coating, a further aspect that may also influence cell migration is associated with the release of biochemical factors from viable but injured cells at the edge of the wounding area. To investigate whether cells located in the adjacent vicinity of the cell-free area are injured by membrane compression, dead staining using ethidium homodimer-1 was conducted in subsequent experiments. Results indicated the presence of red fluorescently labelled DNA debris present in the cell-free area following 1 h after wound induction. More importantly, none of the leading edge cells appeared damaged by the membrane compression, since only DNA from lysed cells inside the wound remained on the substrate. […]

Where [1] appears, read: 10 μg/ml Mitomycin-C, one hour exposure, flow rate 3 μl/min, after 6 h.

Consider TNF-α, for which the “remaining cell-free area, factor larger than control experiments” value (1 ng/ml TNF-α in medium immediately after wound induction and maintained, 6 h post wounding) was 3.3.

For the molecule `CO[C@@]12[C@H](COC(N)=O)C3=C(C(=O)C(C)=C(N)C3=O)N1C[C@@H]1N[C@@H]12` [Mitomycin-C], the “wound closure observed after” value (10 μg/ml Mitomycin-C, one hour exposure) turned out to be 24 h. Besides, under setting [1], the “cell-free area, times larger compared to TNF-α treated cells” value was determined as 1.5 and the “cell-free area, times larger compared to control experiments” value was determined as 5. Besides, the “cell density within the wounded area” value (10 μg/ml Mitomycin-C, after 24 h, compared to control) is recorded as “visibly reduced”.
